Where two headings read alike, the source gives them in different places.
Legend:
[1] = test system: PIKFYVE TDP-43 yeast strain; test: Propidium iodide viability assay in PIKFYVE TDP-43 yeast strain; format: cell-based; settings: for IC50: Saccharomyces cerevisiae, PIKFYVE TDP-43 yeast strain, reduction in PI-positive cells, 15 to 0.11 μM, 24 hours; for PIKfyve TDP-43 (active/inactive): PIKFYVE TDP-43 yeast model
From the text: Generation of TDP-43 yeast model expressing human PIKfyve. Human PIKFYVE (“entry clone”) was cloned into pAG416GPDccdB (“destination vector”) according to standard Gateway cloning protocols (Invitrogen, Life Technologies). […] Lithium acetate/polyethylene glycol-based transformation was used to introduce the above PIKFYVE plasmid into a BY4741 yeast strain auxotrophic for the ura3 gene and deleted for two transcription factors that regulate the xenobiotic efflux pumps, a major efflux pump, and FAB1, the yeast ortholog of PIKFYVE (MATa, snq2::KILeu2; pdr3::Klura3; pdr1::NATMX; fab1::G418^R, his3; leu2; ura3; met15; LYS2+) (FIG. 2). Transformed yeast were plated on solid agar plates with complete synthetic media lacking uracil (CSM-ura) and containing 2% glucose. Individual colonies harboring the control or PIKFYVE TDP-43 plasmids were recovered. A plasmid containing wild-type TDP-43 under the transcriptional control of the GAL1 promoter and containing the hygromycin-resistance gene as a selectable marker was transformed into the fab1::G418^R pAG416GPD-PIKFYVE yeast strain (FIG. 1). Transformed yeast were plated on CSM-ura containing 2% glucose and 200 µg/mL G418 after overnight recovery in media lacking antibiotic. Multiple independent isolates were further evaluated for cytotoxicity and TDP-43 expression levels.
Viability Assay. A control yeast strain with the wild-type yeast FAB1 gene and TDP-43 (“FAB1 TDP-43”, carries empty pAG416 plasmid), and the “PIKFYVE TDP-43” yeast strain, were assessed for toxicity using a propidium iodide viability assay. Both yeast strains were transferred from solid CSM-ura/2% glucose agar plates into 3 mL of liquid CSM-ura/2% glucose media for 6-8 hours at 30° C. with aeration. […] Log-phase overnight cultures were diluted to OD600 of 0.005 in CSM-ura containing either 2% raffinose or galactose and 150 µL dispensed into each well of a flat bottom 96-well plates. […] Wells containing DMSO alone were also evaluated as controls for compound effects. […] Cultures were immediately mixed to ensure compound distribution and covered plates incubated at 30° C. for 24 hours in a stationary, humified incubator.
(§1) Upon the completion of incubation, cultures were assayed for viability using propidium iodide (PI) to stain for dead/dying cells. A working solution of PI was made where, for each plate, 1 µL of 10 mM PI was added to 10 mL of CSM-ura (raffinose or galactose). The final PI solution (50 µL/well) was dispensed into each well of a new round bottom 96-well plate. The overnight 96-well assay plate was then mixed with a multichannel pipet and 50 µL transferred to the PI-containing plate. This plate was then incubated for 30 minutes at 30° C. in the dark. A benchtop flow cytometer (Miltenyi MACSquant) was then used to assess red fluorescence (B2 channel), forward scatter, and side scatter (with following settings: gentle mix, high flow rate, fast measurement, 10,000 events). Intensity histograms were then gated for “P-positive” or “PI-negative” using the raffinose and galactose cultures treated with DMSO as controls. The DMSO controls for raffinose or galactose-containing cultures were used to determine the window of increased cell death and this difference set to 100. All compounds were similarity gated and then compared to this maximal window to establish the percent reduction in PI-positive cells.

[2] = molecular target: full-length human PIKFYVE (Homo sapiens (Human), UniProt Q9Y2I7, L932S/Q1183K/Q995L/S1033A/S696N/T998S); test: PIKfyve Biochemical Assay (ADP-Glo Kinase assay, GST-PIKFYVE)
Protocol: PIKfyve Biochemical Assay. The biochemical PIKFyve inhibition assays were run by Cama Biosciences according to proprietary methodology based on the Promega ADP-Glo™ Kinase assay. […] GST-PIKFYVE was purified by using glutathione sepharose chromatography and used in an ADP-Glo™ Kinase assay (Promega). Reactions were set up by adding the test compound solution, substrate solution, ATP solution and kinase solution, each at 4× final concentrations. Reactions were prepared with assay buffer (50 mM MOPS, 1 mM DTT, pH7.2), mixed, and incubated in black 384 well polystyrene plates for 1 hour at room temperature. ADP-Glo™ reagent was then added for 40 minutes, followed by kinase detection reagent for an additional 40 minutes. The kinase activity was evaluated by detecting relative light units on a luminescence plate reader. Samples were run in duplicate from 10 μM to 3 nM. […] IC50 values were calculated from concentration versus percent inhibition curves by fitting to a four-parameter logistic curve.
The biochemical PIKFyve inhibition assays were run by Cama Biosciences according to proprietary methodology based on the Promega ADP-Glo™ Kinase assay. […] GST-PIKFYVE was purified by using glutathione sepharose chromatography and used in an ADP-Glo™ Kinase assay (Promega).
Reactions were set up by adding the test compound solution, substrate solution, ATP solution and kinase solution, each at 4× final concentrations. Reactions were prepared with assay buffer (50 mM MOPS, 1 mM DTT, pH7.2), mixed, and incubated in black 384 well polystyrene plates for 1 hour at room temperature. ADP-Glo™ reagent was then added for 40 minutes, followed by kinase detection reagent for an additional 40 minutes. The kinase activity was evaluated by detecting relative light units on a luminescence plate reader. Samples were run in duplicate from 10 uM to 3 nM. […] IC50 values were calculated from concentration vs % inhibition curves by fitting to a four-parameter logistic curve.

FAB1 TDP-43 yeast strain = test: Propidium iodide viability assay in FAB1 TDP-43 control yeast strain; format: cell-based; settings: for FAB1 TDP-43 (active/inactive): FAB1 TDP-43 yeast model
Protocol: Viability Assay. A control yeast strain with the wild-type yeast FAB1 gene and TDP-43 (“FAB1 TDP-43”, carries empty pAG416 plasmid), and the “PIKFYVE TDP-43” yeast strain, were assessed for toxicity using a propidium iodide viability assay. Both yeast strains were transferred from solid CSM-ura/2% glucose agar plates into 3 mL of liquid CSM-ura/2% glucose media for 6-8 hours at 30° C. with aeration. Yeast cultures were then diluted to an optical density at 600 nm wavelength (OD600) of 0.005 in 3 mL of CSM-ura/2% raffinose and grown overnight at 30° C. with aeration to an OD600 of 0.3-0.8. Log-phase overnight cultures were diluted to OD600 of 0.005 in CSM-ura containing either 2% raffinose or galactose and 150 µL dispensed into each well of a flat bottom 96-well plates. Compounds formulated in 100% dimethyl sulfoxide (DMSO) were serially diluted in DMSO and 1.5 µL diluted compound transferred to the 96-well plates using a multichannel pipet. Wells containing DMSO alone were also evaluated as controls for compound effects. Tested concentrations ranged from 15 µM to 0.11 µM. Cultures were immediately mixed to ensure compound distribution and covered plates incubated at 30° C. for 24 hours in a stationary, humified incubator.
as §1

PIKfyve = PIKfyve (Homo sapiens (Human), UniProt Q9Y2I7); test: PIKfyve EEA1 Assay (endosomal vesicle enlargement, high content imaging in U2OS cells); format: cell-based; settings: 3 hours of treatment, activity relative to maximal APY0201 activity
Protocol: PIKfyve EEA1 Assay. Genetic or pharmacological disruption of PIKfyve activity results in enlargement of endosomal vesicles. This enlargement was utilized as a surrogate readout of PIKFyve inhibition for routine triage of PIKfyve inhibitors. U2OS cells grown in 96-well assay plates were treated with compound diluted in DMEM media containing 10% fetal bovine serum. After 3 hours of treatment, cells were fixed with paraformaldehyde, permeabilized with 0.2% Triton-X in phosphate buffered saline and stained against EEA1. During the secondary antibody staining, cells were also stained with CellMask™ Deep Red and Hoechst to detect cytoplasms and nuclei respectively. Endosomal structures were visualized using a high content imager at 40× magnification. Images were analyzed using a linear classifier algorithm integrating EEA1 spot size, intensity and texture trained on images of cells treated with the potent reference compound APY0201. Compound activity was calculated by subtracting the DMSO signal and calculating percentage activity relative to maximal APY0201 activity. IC50 values were then calculated from concentration versus percent inhibition data by logistic regression.

[3] = ADP-Glo, 1 hour at room temperature, 10 μM to 3 nM in duplicate, read-out: PIKfyve Biochemistry IC50 (μM)*

Sequence of PIKfyve (Q9Y2I7 whole entry): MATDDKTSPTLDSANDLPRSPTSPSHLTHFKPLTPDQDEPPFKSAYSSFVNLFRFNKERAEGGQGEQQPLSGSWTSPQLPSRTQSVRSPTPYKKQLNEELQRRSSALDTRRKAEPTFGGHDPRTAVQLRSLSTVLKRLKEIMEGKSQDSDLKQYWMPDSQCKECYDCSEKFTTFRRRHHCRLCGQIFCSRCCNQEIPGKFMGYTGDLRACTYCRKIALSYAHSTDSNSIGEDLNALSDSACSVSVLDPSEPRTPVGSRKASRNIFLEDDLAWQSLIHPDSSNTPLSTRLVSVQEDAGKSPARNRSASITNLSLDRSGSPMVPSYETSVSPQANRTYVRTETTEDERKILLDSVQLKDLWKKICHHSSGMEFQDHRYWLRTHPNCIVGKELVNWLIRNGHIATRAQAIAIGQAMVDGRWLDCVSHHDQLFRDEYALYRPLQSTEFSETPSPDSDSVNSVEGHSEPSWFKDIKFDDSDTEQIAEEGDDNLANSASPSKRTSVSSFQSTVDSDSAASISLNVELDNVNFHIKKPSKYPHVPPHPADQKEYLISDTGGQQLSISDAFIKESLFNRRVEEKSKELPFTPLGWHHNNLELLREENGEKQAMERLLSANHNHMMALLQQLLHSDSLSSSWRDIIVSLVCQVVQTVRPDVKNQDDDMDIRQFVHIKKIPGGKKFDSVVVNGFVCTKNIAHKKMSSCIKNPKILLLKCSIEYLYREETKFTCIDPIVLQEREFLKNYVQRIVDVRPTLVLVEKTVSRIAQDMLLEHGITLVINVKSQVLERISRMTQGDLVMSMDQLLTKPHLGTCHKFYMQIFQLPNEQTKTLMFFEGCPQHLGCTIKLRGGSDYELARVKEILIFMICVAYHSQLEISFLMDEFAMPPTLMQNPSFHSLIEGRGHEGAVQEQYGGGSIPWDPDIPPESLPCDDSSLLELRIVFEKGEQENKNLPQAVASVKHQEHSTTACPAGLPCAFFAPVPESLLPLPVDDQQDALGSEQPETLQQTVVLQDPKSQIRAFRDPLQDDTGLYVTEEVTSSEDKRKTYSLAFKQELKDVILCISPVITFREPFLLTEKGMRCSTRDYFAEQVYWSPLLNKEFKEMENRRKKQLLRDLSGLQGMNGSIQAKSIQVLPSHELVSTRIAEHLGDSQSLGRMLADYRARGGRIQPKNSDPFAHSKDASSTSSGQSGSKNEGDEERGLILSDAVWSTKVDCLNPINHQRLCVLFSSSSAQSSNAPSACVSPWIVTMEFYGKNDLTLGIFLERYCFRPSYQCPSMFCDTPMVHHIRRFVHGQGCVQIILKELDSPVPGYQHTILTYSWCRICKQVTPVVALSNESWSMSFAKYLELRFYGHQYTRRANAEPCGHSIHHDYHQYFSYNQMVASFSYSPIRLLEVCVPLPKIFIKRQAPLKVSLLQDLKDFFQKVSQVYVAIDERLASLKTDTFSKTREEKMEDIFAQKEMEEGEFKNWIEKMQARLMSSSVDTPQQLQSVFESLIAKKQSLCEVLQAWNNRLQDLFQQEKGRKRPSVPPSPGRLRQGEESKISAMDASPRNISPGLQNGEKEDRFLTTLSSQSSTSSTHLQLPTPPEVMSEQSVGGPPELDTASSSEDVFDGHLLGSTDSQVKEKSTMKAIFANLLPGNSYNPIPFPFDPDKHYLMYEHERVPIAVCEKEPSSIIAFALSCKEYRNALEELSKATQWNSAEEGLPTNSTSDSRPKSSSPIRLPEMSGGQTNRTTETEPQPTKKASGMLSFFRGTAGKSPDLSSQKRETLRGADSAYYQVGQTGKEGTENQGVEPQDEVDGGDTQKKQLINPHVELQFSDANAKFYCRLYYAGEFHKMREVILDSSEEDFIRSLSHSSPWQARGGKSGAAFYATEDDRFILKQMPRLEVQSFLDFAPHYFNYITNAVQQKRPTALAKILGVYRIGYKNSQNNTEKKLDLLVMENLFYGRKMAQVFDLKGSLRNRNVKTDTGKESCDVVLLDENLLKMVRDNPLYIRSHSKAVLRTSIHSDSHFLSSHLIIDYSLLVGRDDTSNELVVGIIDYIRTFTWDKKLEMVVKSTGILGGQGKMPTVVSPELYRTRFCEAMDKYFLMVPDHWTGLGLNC
Sequence of full-length human PIKFYVE (Q9Y2I7 whole entry S696N/L932S/Q995L/T998S/S1033A/Q1183K): as the sequence (Q9Y2I7 whole entry) above, with S696N, L932S, Q995L, T998S, S1033A, Q1183K counted along it

| SMILES | IC50 [1] | FAB1 TDP-43 (active/inactive) (FAB1 TDP-43 yeast strain) | PIKfyve TDP-43 (active/inactive) [1] | other results |
| --- | --- | --- | --- | --- |
| Oc1cc(C2CCOCC2)nn1-c1cc(N2CCOCC2)n2nc(-c3ccncc3)cc2n1 | 9100 nM |  |  |  |
| c1ccc(-c2cccc(-c3cc(N4CCOCC4)n4nc(-c5ccncc5)cc4n3)n2)cc1 | 230 nM |  |  |  |
| Cc1cccc(/C=N/Nc2cc(N3CCOCC3)nc(OCCc3ccc(CN)cc3)n2)c1 | 1120 nM |  |  |  |
| N#Cc1cc(N2CCOCC2)n2nc(-c3ccncc3)cc2n1 |  | Inactive | Inactive | IC50 ([2]; ADP-Glo with full-length PIKfyve, read-out: PIKfyve IC50): > 10 µM |
| Oc1cc(-c2ccccc2)nn1-c1cc(N2CCOCC2)n2nc(-c3ccncc3)nc2n1 | 693 nM |  |  |  |
| Cc1cccc(/C=N/Nc2nc(N3CCOCC3)c3nc(-c4ccncc4)n(C)c3n2)c1 [drawing 192] |  | Inactive | Active |  |
| Cc1cccc(/C=N/Nc2cc(N3CCOCC3)n3nc(-c4ccncc4)cc3n2)c1 [APY0201] |  |  |  | viable cells (propidium iodide-negative population) (FAB1 TDP-43 yeast strain; FAB1 TDP-43, across a range of compound concentrations (only 0.23 μM is shown), FIG. 5): no increase in viable cells; population of propidium iodide-positive dead cells ([1]; PIKFYVE TDP-43 model, 0.23 μM, FIG. 6): reduced the population of propidium iodide-positive dead cells; viability ([1]; PIKFYVE TDP-43 model, concentrations ranging from 0.5 mM to less than 100 nM): increased viability |
| Cc1cccc(/C=N/Nc2cc(N3CCOCC3)n3nc(-c4ccncc4)cc3n2)c1 [drawing 190] |  | Inactive | Active |  |
| Cn1c(-c2ccncc2)nc2c(N3CCOCC3)ncnc21 |  | Inactive | Inactive |  |
| Fc1cccc(-c2ccnn2-c2nc(N3CCOCC3)c3ncccc3n2)c1 | 5750 nM |  |  |  |
| c1ccc(-c2ccnc(-c3cc(N4CCOCC4)nc(OCc4ccncc4)n3)n2)cc1 | 1450 nM |  |  |  |
| CN(C)c1cc(N2CCOCC2)n2nc(-c3ccncc3)cc2n1 |  | Inactive | Inactive |  |
| Cc1cccc(/C=N/Nc2nc(N3CCOCC3)c3nc(-c4ccncc4)n(C)c3n2)c1 [drawing 206] | 4720 nM |  |  |  |
| Cc1cccc(/C=N/Nc2cc(N3CC4CC3CO4)n3nc(-c4ccncc4)cc3n2)c1 (stereo not shown) |  | Inactive | Active |  |
| c1ccc(N2CCc3c(OCc4cccnc4)nc(N4CCOCC4)nc32)cc1 | 2680 nM |  |  |  |
| Cc1cccc(/C=N/Nc2nc(N3CCOCC3)c3ncccc3n2)c1 | 8210 nM |  |  |  |
| COc1c(C(=O)Nc2ccccc2)nc(N2CCOCC2)nc1-c1ccn(-c2ccccc2)n1 [Compound 1, 5-methoxy-2-morpholino-N-phenyl-6-(1-phenyl-1H-pyrazol-3-yl)pyrimidine-4-carboxamide] |  |  |  | IC50 [2, 3]: 0.01 to 0.1 µM; IC50 (PIKfyve): 1 to 10 µM |
| COc1c(Oc2cccnc2)nc(N2CCOCC2)nc1-n1cc(-c2ccccc2)cn1 [Compound 2, 4-(5-methoxy-4-(4-phenyl-1H-pyrazol-1-yl)-6-(pyridin-3-yloxy)pyrimidin-2-yl) morpholine] |  |  |  | IC50 [2, 3]: 0.01 to 0.1 µM; IC50 (PIKfyve): 1 to 10 µM |
| COc1c(Nc2ccncc2)nc(N2CCOCC2)nc1-c1cccc(-c2cccnn2)c1 [Compound 10, 5-methoxy-2-morpholino-6-(3-(pyridazin-3-yl)phenyl)-N-(pyridin-4-yl)pyrimidin-4-amine] |  |  |  | IC50 [2, 3]: 0.01 to 0.1 µM; IC50 (PIKfyve): 0.1 to 1 µM |

From patent US20250197375A1, “PYRIMIDINES AND METHODS OF THEIR USE” (Kineta, Inc., priority 2021, published 2025)
